Experimental data reported in EP2266622A2, “Prodrugs containing novel bio-cleavable linkers” (Piramal Life Sciences Limited, priority 2004, dated 2006).
Marks after values point to notes of the source that are not given here.

Key:
Assay type in all cases: in vivo
[1] = test system: MES-induced seizures; test: Test 1: Maximal Electroshock Test (MES), mice i.p.; conditions: for MES: class symbol = dose
Description: (§1) Most of the prodrugs and mutual prodrugs of anticonvulsants described in this invention were evaluated at National Institute of Neurological Disorders and Stroke (NINDS), National Institute of Health (NIH), under their Antiepileptic Screening Program (ASP).
(§2) Test 1 is an initial screening for anticonvulsant activity in the Maximal Electroshock Test (MES) and Subcutaneous Metrazol Seizure Threshold Test (scMET) models combined with an initial assessment of toxicity (TOX) in mice via i.p. injection (see further explanation below). The data for each condition is presented as N/F, where N = number of animals protected from seizure and F = number of animals tested. For test of toxicity, N = number of animals displaying toxic effects and F = number of animals tested. Any deaths occurring during the test were recorded.
(§3) Maximal Electroshock Test (MES): The MES is a model for generalized tonic-clonic seizure and provides an indication of a compound's ability to prevent seizure spread when all neuronal circuits in the brain are maximally active. These seizures are highly reproducible and electro-physiologically consistent with human seizures. For all tests based on MES convulsions, 60 Hz of alternating current (50 mA in mice) is delivered for […] by corneal electrodes, which have been primed with an electrolyte solution containing an anesthetic agent (0.5% tetracaine hydrochloride). Mice were tested at various intervals following doses of 30, 100 and 300 mg/kg of test compound given by i.p. injection of a volume of 0.01 mL/g. Other doses can be used if indicated by previously known pharmacology. An animal is considered "protected" from MES-induced seizures upon abolition of the hind-limb tonic extensor component of the seizure.

[2] = test system: clonic seizures; test: Test 1: Subcutaneous Metrazol Seizure Threshold Test (scMET), mice i.p.; conditions: for ScMET (number of animal protected/number of animal tested): 300 mg/kg (+); for ScMET: class symbol = dose
Description: as §1, §2
Subcutaneous Metrazol Seizure Threshold Test (scMET): Subcutaneous injection of the convulsant metrazol produces clonic seizures in laboratory animals. […] Animals were pretreated with various doses of the test compound given by i.p. injection. At the previously determined Time to Peak Effect (TPE) of the test compound, the dose of metrazol which will produce convulsions in 97% of animals (CD97: 85 mg/kg in mice) was injected into a loose fold of skin in the midline of the neck. The animals were placed in isolation cages to minimize stress and observed for the next 30 minutes for the presence or absence of a seizure. An episode of clonic spasms, approximately […], of the fore and/or hind limbs, jaws, or vibrissae is taken as the end point.

[3] = test system: minimal muscular or neurological impairment; test: Test 1: Acute toxicity, minimal motor impairment (rotorod), mice i.p.; conditions: for Rotorod Toxicity (number of animals exhibiting toxicity/number of animals tested): 300 mg/kg (+); for Rotorod Toxicity: class symbol = dose
Description: as §1, §2

[4] = test system: MES-induced seizures; test: Test 2: MES, rats p.o.; conditions: 30 mg/kg
Source text: as §3
Rats received test compounds orally.

CCOC(=O)CC1(CNC(=O)OCCSSCCO[N+](=O)[O-])CCCCC1 [I-A1-NOPD1]
MES (number of animal protected/number of animal tested) ([1]; 100 mg/kg (++), 0.25 hours after dosing): (1/3)^k | MES (number of animal protected/number of animal tested) ([1]; 300 mg/kg (+), 0.5 h): 1/1 | MES ([1]; 0.5 h): + (+ = activity or toxicity at 300 mg/kg) | MES ([1]; 4.0 h): - (- = no activity or no toxicity at 300 mg/kg) | MES ([1]; at 0.25 hours after dosing (footnote k)): ++ (++ = activity or toxicity at 100 mg/kg) | ScMET (number of animal protected/number of animal tested) ([2]; 0.5 h): 1/1 | ScMET ([2]; 4.0 h): - (- = no activity or no toxicity at 300 mg/kg) | Rotorod Toxicity (number of animals exhibiting toxicity/number of animals tested) ([3]; 0.5 h): 4/4 | Rotorod Toxicity ([3]; 4.0 h): - (- = no activity or no toxicity at 300 mg/kg)

CCOC(=O)CC1(CNC(=O)OCCSSCC(=O)OC)CCCCC1 [I-A1-PD5]
activity in MES (Test 1, in words) [1]: active in MES | MES ([1]; 0.5 h): + (+ = activity or toxicity at 300 mg/kg) | MES ([1]; 4.0 h): - (- = no activity or no toxicity at 300 mg/kg) | ScMET ([2]; 0.5 h): + (+ = activity or toxicity at 300 mg/kg) | ScMET ([2]; 4.0 h): - (- = no activity or no toxicity at 300 mg/kg) | toxicity (Test 1, in words) [3]: no or mild toxicity | Rotorod Toxicity (number of animals exhibiting toxicity/number of animals tested) ([3]; 0.5 h): 3/4 | Rotorod Toxicity ([3]; 0.5 h): + (+ = activity or toxicity at 300 mg/kg) | Rotorod Toxicity ([3]; 4.0 h): - (- = no activity or no toxicity at 300 mg/kg)

CS(=O)(=O)NC(=O)OCCSSCCOC(=O)Nc1nnc(-c2cccc(Cl)c2Cl)c(N)n1 [I-A1-PD15]
activity in MES (Test 1, in words) [1]: active in MES | MES (number of animal protected/number of animal tested) ([1]; 100 mg/kg (++), 4.0 h): 2/3 | MES (number of animal protected/number of animal tested) ([1]; 300 mg/kg (+), 0.5 h): (1/1) | MES (number of animal protected/number of animal tested) ([1]; 300 mg/kg (+), 4.0 h): 1/1 | MES ([1]; 0.5 h): + (+ = activity or toxicity at 300 mg/kg) | ScMET ([2]; 0.5 h): - (- = no activity or no toxicity at 300 mg/kg) | ScMET ([2]; 4.0 h): - (- = no activity or no toxicity at 300 mg/kg) | toxicity (Test 1, in words) [3]: no or mild toxicity | Rotorod Toxicity ([3]; 0.5 h): - (- = no activity or no toxicity at 300 mg/kg) | Rotorod Toxicity ([3]; 4.0 h): - (- = no activity or no toxicity at 300 mg/kg) | MES (number of animal protected/number of animal tested) ([4]; 0.50 h): 0/4 | MES (number of animal protected/number of animal tested) ([4]; 1.00 h): 1/4 | MES (number of animal protected/number of animal tested) ([4]; 2.00 h): 3/4 | MES (number of animal protected/number of animal tested) ([4]; 4.00 h): 4/4

CCOC(=O)CC1(CNC(=O)OCCSSCCOC(=O)NC(=O)[C@H](CC)N2CCCC2=O)CCCCC1 [I-AA-MPD13]
MES ([1]; 0.5 h): - (- = no activity or no toxicity at 300 mg/kg) | MES ([1]; 4.0 h): - (- = no activity or no toxicity at 300 mg/kg) | ScMET (number of animal protected/number of animal tested) ([2]; 0.5 h): 1/1 | ScMET ([2]; 0.5 h): + (+ = activity or toxicity at 300 mg/kg) | ScMET ([2]; 4.0 h): - (- = no activity or no toxicity at 300 mg/kg) | Rotorod Toxicity (number of animals exhibiting toxicity/number of animals tested) ([3]; 0.5 h): 4/4 | Rotorod Toxicity ([3]; 0.5 h): + (+ = activity or toxicity at 300 mg/kg) | Rotorod Toxicity ([3]; 4.0 h): - (- = no activity or no toxicity at 300 mg/kg)
